From ChEMBL document CHEMBL1153270, “Fluoroalkyl alpha side chain containing 3,4-diamino-cyclobutenediones as potent and orally bioavailable CXCR2-CXCR1 dual antagonists” (Bioorg Med Chem Lett, 2009)

Columns and labels:
[1] = target: T1, C-X-C chemokine receptor type 1 (Homo sapiens, UniProt P25024); experiment: Binding affinity to CXCR1
T1 sequence (P25024 whole entry): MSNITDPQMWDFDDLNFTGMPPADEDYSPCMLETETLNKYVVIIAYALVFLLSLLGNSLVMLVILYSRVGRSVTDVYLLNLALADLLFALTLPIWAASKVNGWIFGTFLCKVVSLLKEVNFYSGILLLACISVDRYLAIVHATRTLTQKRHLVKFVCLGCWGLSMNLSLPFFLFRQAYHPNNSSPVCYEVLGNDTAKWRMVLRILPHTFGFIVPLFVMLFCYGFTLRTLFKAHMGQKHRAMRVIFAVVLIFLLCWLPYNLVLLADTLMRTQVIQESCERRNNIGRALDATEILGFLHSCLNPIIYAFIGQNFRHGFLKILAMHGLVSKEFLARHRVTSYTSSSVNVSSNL

[2] = AUC in po dosed rat; format: ADME, organism-based; details: plasma
[3] = target: T2, C-X-C chemokine receptor type 2 (Homo sapiens, UniProt P25025); experiment: Binding affinity to CXCR2
T2 sequence (P25025 whole entry): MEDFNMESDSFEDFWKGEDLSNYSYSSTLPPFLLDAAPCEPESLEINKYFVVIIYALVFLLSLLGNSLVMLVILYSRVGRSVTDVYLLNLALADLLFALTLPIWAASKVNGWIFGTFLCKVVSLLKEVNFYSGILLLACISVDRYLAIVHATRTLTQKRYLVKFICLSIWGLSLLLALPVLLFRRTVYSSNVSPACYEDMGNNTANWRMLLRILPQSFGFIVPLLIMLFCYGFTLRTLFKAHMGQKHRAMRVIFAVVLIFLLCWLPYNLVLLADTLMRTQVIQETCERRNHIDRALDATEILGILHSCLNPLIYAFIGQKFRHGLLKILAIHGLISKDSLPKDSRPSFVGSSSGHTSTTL

| SMILES | Ki [1] [nM] | AUC [2] [µM·h] | Ki [3] [nM] |
| --- | --- | --- | --- |
| CC[C@@H](Nc1c(Nc2cccc(C(=O)N(C)C)c2O)c(=O)c1=O)c1ccccc1 | 40 | 17.4 | 4 |
| CN(C)C(=O)c1cccc(Nc2c(N[C@@H](c3ccccc3)C(F)(F)F)c(=O)c2=O)c1O | 40 | – | 14 |
| C[C@H](F)[C@@H](Nc1c(Nc2cccc(C(=O)N(C)C)c2O)c(=O)c1=O)c1ccco1 | 43 | – | 7 |
| CN(C)C(=O)c1cccc(Nc2c(N[C@H](CC(F)(F)F)c3ccco3)c(=O)c2=O)c1O | 100 | – | 5 |
| CN(C)C(=O)c1cccc(Nc2c(N[C@H](CCC(F)(F)F)c3ccco3)c(=O)c2=O)c1O | – | – | 400 |
| CN(C)C(=O)c1cccc(Nc2c(N[C@@H](c3ccco3)C(F)(F)F)c(=O)c2=O)c1O | 6 | – | 2 |
| CN(C)C(=O)c1cccc(Nc2c(N[C@@H](c3ccc(Cl)o3)C(F)(F)F)c(=O)c2=O)c1O | 34 | – | 7 |
| CN(C)C(=O)c1cccc(Nc2c(N[C@@H](c3cc(Cl)co3)C(F)(F)F)c(=O)c2=O)c1O | 20 | – | 5 |
| C=CC(F)(F)[C@@H](Nc1c(Nc2cccc(C(=O)N(C)C)c2O)c(=O)c1=O)c1ccc(C)o1 | – | – | 9 |
| Cc1ccc([C@H](Nc2c(Nc3cccc(C(=O)N(C)C)c3O)c(=O)c2=O)C(C)(F)F)o1 | 6 | 3 | 10 |
| Cc1ccc([C@H](Nc2c(Nc3cccc(C(=O)N(C)C)c3O)c(=O)c2=O)C(C)(C)F)o1 | 24 | – | 8 |
| Cc1ccoc1[C@H](Nc1c(Nc2cccc(C(=O)N(C)C)c2O)c(=O)c1=O)C(C)(F)F | 30 | – | 12 |
| Cc1ccc([C@H](Nc2c(Nc3cccc(C(=O)N(C)C)c3O)c(=O)c2=O)[C@H](C)F)o1 | 16 | 3.6 | 13 |
| Cc1ccc([C@H](Nc2c(Nc3cccc(C(=O)N(C)C)c3O)c(=O)c2=O)C(F)(F)F)o1 | 9 | 19.8 | 5 |
| Cc1coc([C@H](Nc2c(Nc3cccc(C(=O)N(C)C)c3O)c(=O)c2=O)[C@H](C)F)c1 | 5 | 3.6 | 4 |
| CN(C)C(=O)c1cccc(Nc2c(N[C@@H](c3ccc4c(c3)OCO4)C(F)(F)F)c(=O)c2=O)c1O | 8 | 9.17 | 5 |
| CCC(F)(F)[C@@H](Nc1c(Nc2cccc(C(=O)N(C)C)c2O)c(=O)c1=O)c1ccc(C)o1 | 22 | – | 5 |
| Cc1ccc([C@H](Nc2c(Nc3cccc(C(=O)N(C)C)c3O)c(=O)c2=O)C(F)(F)C(F)(F)F)o1 | 10 | – | 4 |
| CC(C)c1coc([C@H](Nc2c(Nc3cccc(C(=O)N(C)C)c3O)c(=O)c2=O)C(C)(F)F)c1 | 25 | – | 2 |
| CN(C)C(=O)c1cccc(Nc2c(N[C@@H](c3cc(Cl)c(Cl)o3)C(F)(F)F)c(=O)c2=O)c1O | 103 | – | 5 |
| Cc1coc([C@H](Nc2c(Nc3cccc(C(=O)N(C)C)c3O)c(=O)c2=O)C(C)(F)F)c1 | 6 | – | 14 |
| CC[C@@H](Nc1c(Nc2cccc(C(=O)N(C)C)c2O)c(=O)c1=O)c1ccc(C)o1 [NAVARIXIN ANHYDROUS] | – | 49 | – |
